ChEMBL document CHEMBL3507680, “University of Dundee, Gates Library screen for HepG2 cell viability”

Assay: Human HepG2 cell viability assay in 384 well format
Assay type: toxicity, cell-based
Design: dose 125 nL, time 70.5 hour; cytotoxicity at 70.5 h: concentration not given beside the values
Details: HepG2 cells, read-out: Inhibition

Row | Structure (SMILES) | cytotoxicity at 70.5 h
1 | Cn1cc(C(C)(O)CNc2ccccn2)cn1 (configuration not stated) | 2.38%
2 | CCCC(=O)Nc1cc(C(=O)NC(C)Cc2ccncc2)ccc1C (configuration not stated) | -5.95%
3 | Cc1cnn(CCNCc2nc(Cc3ccccc3)no2)c1 | -5.53%
4 | CS(=O)(=O)N1CC2(CCCN(C3COC3)C2)Cc2ccccc21 (configuration not stated) | -3.97%
5 | Cc1ncc(CN2CCC3(CC2)CC(=O)N(C)C3)cn1 | 4.13%
6 | COCCNC(=O)Nc1ccc(C(=O)N2CCSCC2)cc1C | -12.4%
7 | CC(=O)NCC1CCN(C(=O)NCCOc2ccc3c(c2)CCC3)CC1 | -11.5%
8 | Cn1ccc(CN2CCC(NC(=O)C3CCCCC3)CC2)cc1=O | -3.14%
9 | Cc1cc(C)n(CCC2CC(=O)Nc3cc4[nH]ncc4cc32)n1 (configuration not stated) | -6.11%
10 | CCOCCCNc1nc(CS(=O)(=O)c2ccccc2)cs1 | -6.56%
11 | N#CC1(NC(=O)c2nccc3ccccc23)CCC1 | -8.96%
12 | Cc1nc(-c2ccccc2)sc1CSCCS(C)(=O)=O | 1.82%
13 | CSCC(C)NS(=O)(=O)c1ccc(C)c(N(C)C)c1 (configuration not stated) | -4.35%
14 | CN1CCN(Cc2ccoc2)Cc2cccnc21 | -4.02%
15 | CCCn1ncc(C(=O)N2CCC(N3CCCCC3)CC2)c1C | -11.6%
16 | CC(C)Oc1cccc(F)c1C(C(=O)O)N(C)Cc1ccon1 (configuration not stated) | 0.036%
17 | c1cc(CO[C@H]2CC[C@H]3[C@H]2OCCN3Cc2nccs2)ccn1 | -2.27%
18 | Cc1ccc(NC2CCN(C(=O)CCc3ccsc3)CC2)nn1 | -7.65%
19 | COC(=O)CCN1CCC(NC(=O)OC(C)(C)C)CC1 | 1.05%
20 | O=C(NCCC(O)c1cccs1)c1ccco1 (configuration not stated) | -9.55%
21 | COC(=O)C(C)(C)NC(=O)c1cnc(C(C)(C)C)s1 | -1.58%

Row | Structure (SMILES) | cytotoxicity at 70.5 h
22 | CN(Cc1ccccn1)C(CO)c1cccc(Br)c1 (configuration not stated) | -1.08%
23 | Cn1c(NC(=O)CNC(=O)C2CC2)nc2cc(Cl)ccc21 | -7.94%
24 | Cc1cc(C)cc(NS(=O)(=O)c2cc3c(c(C(=O)O)c2)OCCO3)c1 | -5.38%
25 | CCCc1nnc(N2C[C@@H](C)[C@@](C)(O)C2)s1 | 12%
26 | CN(CC(O)C(F)(F)F)C(=O)Nc1cccc(Cn2cccn2)c1 (configuration not stated) | -6.9%
27 | C=C(C)CNC1CCCN(Cc2noc(C3CC3)n2)C1 (configuration not stated) | -5.26%
28 | CC(C)Cn1cncc1CNC(=O)c1cccc(CC2CCNCC2)c1 | 8.07%
29 | O=c1[nH]c(-c2ccccc2F)nc2c1CCNC2 | 14.4%
30 | N#CC1CCCN(c2nc(-c3ccccc3)nc3c2CCNCC3)C1 (configuration not stated) | 6.37%
31 | Cn1ccnc1CN1CC2(CCN(Cc3ccncc3)C2)C1 | -0.993%
32 | Cc1ccc(CN(CCCN(C)C)Cc2cnc(C)n2C)o1 | 6.53%
33 | O=C(CN1CCC(c2cc(=O)n3c(n2)CCCCC3)CC1)N1CCCC1 | 1.49%
34 | COC[C@]1(O)CCN(Cc2c[nH]c(CC3CCCC3)n2)CC1(C)C | 30.4%
35 | COc1cccc(CNc2nc(O)cc(C3CC(=O)N(C)C3)n2)c1 (configuration not stated) | -11.6%
36 | COc1cc(NC(=O)c2cc(Cl)ccc2F)c(C(=O)N(C)C)cc1OC | -15.4%
37 | CC(C)(C)c1coc([C@@H]2COCCN2Cc2c[nH]cn2)n1 | 2.66%
38 | OC(CNCCn1cccn1)c1ccc(F)c(F)c1 (configuration not stated) | 0.389%
39 | O=C(CN1CCCC(Cn2cncn2)C1)NCc1ccco1 (configuration not stated) | -15.8%
40 | NC(=O)NC(CC(=O)NCCc1ccc(F)cc1)c1ccccc1 (configuration not stated) | 1.48%
41 | Cc1[nH]ccc1C(=O)NCC1CC(=O)N(CCc2ccccc2)C1 (configuration not stated) | -3.09%
42 | CS(=O)(=O)N1CCO[C@@H]2CN(C(=O)C3CC(F)(F)C3)C[C@@H]2C1 | -3.63%

Row | Structure (SMILES) | cytotoxicity at 70.5 h
43 | OC[C@@H](O)CN(CCC(F)(F)F)c1ncccn1 | 5.67%
44 | Cc1ccsc1CN(C)Cc1nc2c(cnn2C)c(=O)[nH]1 | -7.29%
45 | CCOc1ccc(CNC(C)c2cccc(S(=O)(=O)NC)c2)cc1 (configuration not stated) | -9.92%
46 | COC(=O)c1sccc1S(=O)(=O)N1CCC(Oc2cccnn2)CC1 | -3.46%
47 | O=C(NCCNc1ncccn1)C1CCN(C(=O)c2ccoc2)CC1 | -3.53%
48 | COCC(=O)N1CCC2(CC1)CNc1ccc(F)cc12 | -9.36%
49 | Cc1noc(COCC(=O)N2CCCCC2c2nccs2)n1 (configuration not stated) | -8.06%
50 | COc1ccc(CNC(=O)c2nn(C)c3c2CS(=O)(=O)CC3)cc1 | -7.69%
51 | Cc1nc(C(C)C)sc1C(C)N(C)C(=O)c1ccc(=O)n(C)c1 (configuration not stated) | 1.52%
52 | C[C@@H]1CN(S(=O)(=O)N2CCOCC2)C[C@@]1(O)C1CC1 | -2.98%
53 | NCc1cn(CC2CCCN(C(=O)CC3=CCCCC3)C2)nn1 (configuration not stated) | -11.9%
54 | Cc1nc(CN2CCO[C@H]3CN(C(=O)c4cscn4)C[C@H]32)cs1 | -5.86%
55 | O=C(c1cnccn1)N1C[C@@H](OCc2cccnc2)[C@H]2OCCC[C@H]21 | 8.16%
56 | c1ccc2nc(N3CCCC3)c(NCc3nnc4n3CCC4)nc2c1 | -9.07%
57 | CC(C)(CNC1CCCN(Cc2ccccc2F)C1)CN1CCOCC1 (configuration not stated) | -15.7%
58 | CCc1nc(CN2CCCC(N(C)CCn3cccn3)C2)no1 (configuration not stated) | 57.1%
59 | COCc1ncn2c1CN(C(=O)c1ccco1)CC2 | 1.28%
60 | Cc1cnn(CCNCC(O)c2ccc(S(C)(=O)=O)cc2)c1 (configuration not stated) | -11.8%
61 | CC(=O)NCC(=O)N1Cc2nccn2CC(COc2cccnc2)C1 (configuration not stated) | -10.5%
62 | NC(=O)NC(=O)CCSCc1coc(-c2ccc(F)cc2)n1 | -3.5%
63 | CC(C)Cc1noc(-c2ccc(NCc3noc(C(C)C)n3)nc2)n1 | -5.16%

Row | Structure (SMILES) | cytotoxicity at 70.5 h
64 | Cc1noc([C@H]2C[C@H]3OCC[C@H]3N(Cc3ccc(F)cc3)C2)n1 | -8.23%
65 | CCCc1nc(NCC(=O)N2CCOCC2)c2c(n1)c(C)nn2CC | 44.1%
66 | Cc1nc(CN2CC3(CCN(c4ncccn4)C3)CC2=O)cs1 (configuration not stated) | -23.8%
67 | Cc1cc(C(=O)N2CCc3c(ncn3CCc3ccccc3)C2)on1 | -7.15%
68 | Cc1noc(C)c1CN1C[C@@H]2COC[C@@H](CC(=O)N3CCCCO3)[C@@H]2C1 | -6.43%
69 | C=C(C)CNC(=O)C1CCCN(C2CCN(C(C)C)CC2)C1 (configuration not stated) | -2.47%
70 | O=S(=O)(c1ccccc1)N1CCC2(CCCN2Cc2ccc(Cl)cc2)C1 (configuration not stated) | -7.11%
71 | Cc1nn(C)c(N(C)C)c1CNCc1ccc(Cn2cccn2)cc1 | -4.86%
72 | Cn1cc(S(=O)(=O)Nc2ccc(Cl)cn2)cc1C(N)=O | -3.76%
73 | Cc1csc(C2(NCC(O)COC(C)C)CCCC2)n1 (configuration not stated) | -11.4%
74 | CN1C(=O)CCC12CCCN(C(=O)c1ccncc1F)C2 (configuration not stated) | -5.46%
75 | CCc1noc(CN2CCCC2C(=O)OCc2ccccc2)n1 (configuration not stated) | -16.5%
76 | O=C(NCCCSc1ccc(F)cc1)C1CCc2cn[nH]c2C1 (configuration not stated) | -4.46%
77 | CCC(C)(C)c1cc(-c2c(C)nn(CCO)c2C)c(C#N)c(N)n1 | 12.5%
78 | COc1ccccc1OCC(=O)NS(=O)(=O)c1ccc(C)s1 | -4.78%
79 | O=C1CCC(c2nc(C3CCNCC3)no2)N1 (configuration not stated) | -6.87%
80 | CC(=O)N[C@@H]1CN(C2CCN(c3cccc(C)c3C)CC2)C[C@H]1C(C)C | -5.59%
81 | COCCCNC(=O)N1CCC(CNC(=O)c2cnn(C)c2)CC1 | -8.18%
82 | CC(O)CN1CCC(CN(C)CC(=O)NC(C)C)CC1 (configuration not stated) | -1.64%
